Patent US20250352555A1, “METHOD OF INCREASING IMMUNE CELL ACTIVATION AND/OR TREATING CANCER USING DIBENZOXAZEPINONES” (VASCULAR THERAPEUTICS PTY LTD, priority 2022, published 2025)

Experiments:
p-ERK [1] = assay: Immunohistochemistry of MDA-MB-435 tumors, p-ERK; format: in vivo, mouse; settings: SCID mice, 20 mg/kg i.t.
Excerpt: (§1) Immunohistochemical staining and analyses. Rabbit monoclonal anti-CD3 (cat. no. ab16669; mouse, rat and human reactive), rabbit monoclonal anti-PD-1 (cat. no. ab214421), rabbit monoclonal anti-CD68 (cat. no. ab125212) antibodies were obtained from Abcam, rabbit monoclonal anti-phospho-ERK (Thr^202/Tyr^204) (cat. no. CST4370), rabbit monoclonal total ERK (cat. no. CST4695), antibodies were obtained from Cell Signaling Technology. Rabbit polyclonal anti-PD-L1 (cat. no. PA5-20343) antibody was obtained from ThermoFisher.
(§2) Formalin fixed, paraffin embedded sections were prepared from tumors. Heat-induced epitope retrieval was applied to all deparaffinized sections (4 μm sections on Superfrost slides) with citrate buffer, pH 6.0 for 5 min at 110° C. Sections were blocked with Dual Endogenous Enzyme Block (DAKO, S2003) for 10 min and then with 2% skim milk for 20 min. Slides were incubated with primary antibody for 60 min at room temperature or overnight at 4° C. and then for 10 min with probe of MACH3 Rabbit AP-Polymer Detection solution (Biocare Medical, M3R533 G, H, L). […] Integrated optical density (IOD) or area of positive staining (red chromagen) was assessed using Image-Pro Plus software (Cybernetics, Bethesda, MD, USA). Positive staining was the average of quantitation in 4-8 fields of view under 20× or 40× objectives.

p-ERK [2] = assay: Immunohistochemistry of B16F10 tumors (Day 17), p-ERK; format: in vivo, mouse; settings: B16F10 tumors Day 17, 200 mg/kg i.p.
Excerpt: as §1
(§3) Formalin fixed, paraffin embedded sections were prepared from tumors. Heat-induced epitope retrieval was applied to all deparaffinized sections (4 μm sections on Superfrost slides) with citrate buffer, pH 6.0 for 5 min at 110° C. […] Integrated optical density (IOD) or area of positive staining (red chromagen) was assessed using Image-Pro Plus software (Cybernetics, Bethesda, MD, USA). Positive staining was the average of quantitation in 4-8 fields of view under 20× or 40× objectives.
To assess the effect of BT2 in the same model, C57BL/6J mice bearing s.c. B16F10 tumors were administered with BT2 or vehicle (200 mg/kg or 20 ml/kg, respectively, i.p.) once a day on a 5 days-on/2 days-off schedule. […] Tumor size on Day 17 measured using callipers (FIG. 10A) correlated with isolated weighed tumors (FIG. 10B).

CD68 = assay: Immunohistochemistry of B16F10 tumors (Day 17), CD68; format: in vivo, mouse; settings: B16F10 tumors Day 17, 200 mg/kg i.p.
Excerpt: as §1
as §3, with “C. Sections were blocked with Dual Endogenous Enzyme Block (DAKO, S2003) for 10 min and then with 2% skim milk for 20 min.” for “C.”
Immunohistochemical analysis was performed on B16F10 tumors (Day 17) from BT2- or vehicle-treated mice with antibodies to CD68. IOD and tissue area were assessed using Image-Pro Plus and the IOD/μm^2 was determined.

CD3 = assay: Immunohistochemistry of B16F10 tumors (Day 17), CD3; format: in vivo, mouse; settings: B16F10 tumors Day 17, 200 mg/kg i.p.
Excerpt: as §1
as §2, with “objectives. […]” for “objectives.”

PD-1 = assay: Western blotting for PD-1, Jurkat T cells; format: cell-based, human; settings: various concentrations, 24 h
Description: (§4) Western blotting. Cells were treated with compounds and times indicated and total cell lysates were prepared in RIPA buffer. Lysates (10 μg) were resolved by SDS-PAGE and transferred to Immobilon-P polyvinylidene difluoride (PVDF) membranes (Millipore, USA).
(§5) Membranes were blocked with 5% skim milk and incubated with rabbit monoclonal anti-c-Jun (Abcam, cat. no. ab32137; mouse, rat and human reactive) antibody, rabbit monoclonal anti-PD-1 (Abcam, cat. no. ab214421) antibody, mouse monoclonal β-actin antibody (Sigma-Aldrich, cat. no. A5316), anti-phospho-SAPK/JNK (Thr^183/Tyr^185) (98F2) (CST, cat. no. 4671) antibody, anti-phospho-p44/42 MAPK (ERK1/2) (Thr^202/Tyr^204) (D13.14.4E) (CST, cat. no. 4370) antibody, anti-phospho-p38 MAPK (Thr^180/Tyr^182) (D3F9) (CST, cat. no. 4511) antibody, anti-SAPK/JNK antibody (CST, cat. no. 9252), anti-p44/42 MAPK (ERK1/2) (137F5) antibody (CST, cat. no. 4695), anti-p38 MAPK antibody (CST, cat. no. 9212), anti-DUSP8 antibody (Abcam, cat. no. ab198175) or anti-c-MAF (BLR045F) antibody (Abcam, cat. no. ab243901). This was followed by incubation with horseradish peroxidase-conjugated secondary goat anti-rabbit (DAKO, cat. no. P0448) or goat anti-mouse (DAKO, cat. no. P0447) antibody. Chemiluminescence was detected using the Western Lightning Chemiluminescence system (Thermo Scientific, USA) and ImageQuant™ LAS 4000 biomolecular imager (GE Healthcare Life Sciences, USA). Band intensity in images generated with the LAS 4000 was quantified using NIH Image J.

p-ERK [3] = assay: Western blotting time course for p-ERK, Jurkat T cells; format: cell-based, human; settings: Western blot time course
Description: as §4
as §5, with “This was followed by incubation with horseradish peroxidase-conjugated secondary goat anti-rabbit (DAKO, cat. no. P0448) or goat anti-mouse (DAKO, cat. no. P0447) antibody.” left out, “J. […]” for “J.”

SMILES: CCOC(=O)Nc1ccc2c(c1)C(=O)N(CC)c1ccccc1O2 [BT2, (10-ethyl-11-oxo-10,11-dihydro-dibenzo[b,f][1,4]oxazepin-2-yl)-carbamic acid ethyl ester]
- ERK phosphorylation in the tumors (IHC) (p-ERK [1]): suppression of ERK phosphorylation
- ERK phosphorylation in tumors (IHC) (p-ERK [2]): suppression of ERK phosphorylation
- CD68 levels in the tumors (IHC) (CD68): reduced levels of CD68
- CD3+ staining in the tumor periphery (within 250 μm) (IHC) (CD3): stimulated CD3^+ staining in the tumor periphery
- PD-1 expression (Western blot) (PD-1): suppressed by BT2 in a dose-dependent manner
- levels of ERK phosphorylation (p-ERK [3]): no effect
